Assay results reported in patent US12551573B2, “Compositions and methods for the targeting of PCSK9” (Scribe Therapeutics Inc., priority 2022, dated 2026).

Tests used:
[1] = tested on: mouse PCSK9 locus; assay: Intracellular PCSK9 staining by flow cytometry in Hepa1-6 cells lipofected with mRNA and gRNA; assay type: cell-based; details: for permanence of PCSK9 silencing by spacer: paired with LTRP1-ZIM3 mRNA, through day 25
Experimental: Seeded Hepa1-6 cells treated with the NATE™ inhibitor were lipofected with 300 ng of mRNA encoding dXR1 or LTRP1-ZIM3 (Table 12) and 150 ng of a PCSK9-targeting gRNA (Table 14). Seven different gRNAs spanning the promoter region of the mouse PCSK9 locus were tested, in addition to a non-targeting sequence complementary to the human PCSK9 gene (Table 14). Cells were harvested at 6, 13, and 25 days after transfection to measure intracellular levels of the PCSK9 protein using an intracellular flow cytometry staining protocol. Briefly, cells were fixed using 4% paraformaldehyde in PBS, permeabilized, and stained using a mouse anti-PCSK9 primary antibody (R&D Systems®), followed by a fluorescent goat anti-mouse IgG secondary antibody (Thermo Fisher®). […] Cell populations were gated using the non-targeting gRNA as a negative control.
Seeded Hepa1-6 cells treated with the NATE™ inhibitor were lipofected with 300 ng of mRNA encoding LTRP1-ZIM3, LTRP5-ZIM3, catalytically-active CasX 491, or dCas9-ZNF10-DNMT3A/3L, and 150 ng of PCSK9-targeting gRNA (Table 14). Intracellular levels of PCSK9 protein were measured at 7, 14, 21, 36, and 71 days post-transfection using an intracellular staining protocol as described earlier for experiment #1.
Transfection of mRNA and gRNA into Hepa1-6 cells and intracellular PCSK9 staining were performed as described in Example 2. Briefly, each well of seeded Hepa1-6 cells was transfected with 300 ng of mRNA encoding LTRP5-ZIM3 or LTRP5-ADD-ZIM3 and 150 ng of PCSK9-targeting gRNA with spacer 27.88 or 27.94. Intracellular levels of PCSK9 protein were measured at various timepoints, up to day 53 post-transfection using an intracellular staining protocol as described earlier in Example 2. A non-targeting gRNA was used as an experimental control.

[2] = tested on: human PCSK9 locus; assay: Secreted PCSK9 by ELISA (normalized to total cell count) in Huh7 cells transfected with mRNA and gRNA; assay type: cell-based; details: paired with LTRP5-ADD-ZIM3 mRNA; for Secreted PCSK9 / Percent reduction in PCSK9 secretion / Average percent reduction in PCSK9 secretion: Huh7 cells, 6 days post-transfection; for Secreted PCSK9: normalized to total cell count; for Percent reduction in PCSK9 secretion: relative to non-targeting gRNA control; for Average percent reduction in PCSK9 secretion: averaged from the two doses
Experimental: To assess PCSK9 secretion, seeded Huh7 cells were transfected with mRNA encoding a catalytically-active CasX 676, dXR1, or LTRP5-ADD-ZIM3 and a gRNA with scaffold 316 and spacer targeting either the B2M or PCSK9 locus. Media supernatant was harvested at 6, 18, 36, and 87 days post-transfection to assess level of PCSK9 secretion by ELISA. Levels of PCSK9 secretion were normalized to total cell count. As an additional control, PCSK9 secretion was also measured in the media supernatant harvested from wells containing untreated, naïve cells.
The following three human hepatocyte cancer cell lines were used in this experiment: HepG2 cells, Hep3B cells, and Huh7 cells. ˜15,000 cells of each cell line were seeded per well; the next day, seeded cells were transfected with mRNA encoding a catalytically-active CasX 676, dXR1, or LTRP5-ADD-ZIM3 and a gRNA with scaffold 316 and spacer targeting either the B2M or PCSK9 locus (see Table 23 for specific spacers and sequences). Media supernatant was harvested at 4 days post-transfection to assess level of PCSK9 secretion by ELISA, and levels of PCSK9 secretion were normalized to total cell count and illustrated in FIGS. 11A-11C. Culturing of treated Huh7 cells continued, and media supernatant was harvested at 14 and 27 days post-transfection for measuring PCSK9 secretion by ELISA. As an additional experimental control, PCSK9 secretion was also measured in the media supernatant harvested from wells containing untreated, naïve cells.
To assess PCSK9 secretion, seeded Huh7 cells were co-transfected with mRNA encoding for LTRP5-ADD-ZIM3 and a gRNA with scaffold 316 and spacer targeting the PCSK9 locus using Lipofectamine™ 3000. Two doses of total RNA input at a 2:1 mass ratio of mRNA to gRNA were used for screening: 50 ng mRNA: 25 ng gRNA and 25 ng mRNA: 12.5 ng gRNA. Media supernatant was harvested at 6 days post-transfection to assess level of PCSK9 secretion by ELISA (Table 74). Levels of PCSK9 secretion were normalized to total cell count. As an additional control, PCSK9 secretion was also measured in the media supernatant harvested from cells transfected with mRNA encoding for mScarlet.

Substance	knockdown of intracellular PCSK9 ([1]; 300 ng LTRP1-ZIM3 mRNA + 150 ng gRNA (scaffold 174, v1), day 6) [%]	permanence of PCSK9 silencing by spacer [1]	durability of PCSK9 repression by spacer ([1]; paired with LTRP5-ZIM3 or LTRP5-ADD-ZIM3, day 53)	durable PCSK9 knockdown ([1]; third-party-produced mRNA paired with gRNAs containing various spacers, up to day 71)	Secreted PCSK9 ([2]; 25 ng mRNA:12.5 ng gRNA) [ng/mL]	Percent reduction in PCSK9 secretion ([2]; 25 ng mRNA:12.5 ng gRNA) [%]	Secreted PCSK9 ([2]; 50 ng mRNA:25 ng gRNA) [ng/mL]	Percent reduction in PCSK9 secretion ([2]; 50 ng mRNA:25 ng gRNA) [%]	Average percent reduction in PCSK9 secretion [2] [%]	repression of PCSK9 secretion by spacer ([2]; Huh7, scaffold 316, days 4, 14, 27)
CCCCUCUUAAUCCCCACUCC (spacer within chemically modified full gRNA with 2'-OMe and phosphorothioate ends, further chemistry not given here) [spacer 27.94, mouse PCSK9]	> 80	strongest permanence in silencing PCSK9	more durable repression than use of spacer 27.88 by day 53	highest level of PCSK9 repression	–	–	–	–	–	–
GAAUUCUAUGGUAGGCACAA (listed as RNA, chemistry not given here) [spacer 6.134, Promoter]	–	–	–	–	57.45	19.37	43.79	46.77	33.07	–
CGCGCCCUGCUCCUGAACUU (listed as RNA, chemistry not given here) [spacer 6.160, Exon 1]	–	–	–	–	48.67	31.69	20.63	74.93	53.31	–
GGGUCUGAGCCUGGAGGAGU (listed as RNA, chemistry not given here) [spacer 6.157, Exon 1]	–	–	–	–	32.4	54.53	12.32	85.03	69.78	most effective repression of PCSK9 secretion
TG-06-250 (guide GAUUUGGUUUGGAAAACAUG; listed as RNA, chemistry not given here)	–	–	–	–	80.42	12.87	86.92	5.64	9.26	–
UCCCAGUAUCGACAGCCCUU (listed as RNA, chemistry not given here) [spacer 6.123, Promoter]	–	–	–	–	51.32	27.97	30.49	62.95	45.46	–
UCGGCCUCCGGGUCUCCCAA (listed as RNA, chemistry not given here) [spacer 6.170, Intron 1]	–	–	–	–	72.96	2.41	64.19	21.98	9.79	–
UCCUCCUGCCUGGUACACAA (listed as RNA, chemistry not given here) [spacer 6.127, Promoter]	–	–	–	–	49.1	31.08	22.57	72.56	51.82	–
GUGGGAAGGUUCGCGGGGUU (listed as RNA, chemistry not given here) [spacer 6.168, Intron 1]	–	–	–	–	50.96	28.47	19.1	76.78	52.62	–
AGGAGCAGCUAGUUGGUAAG (listed as RNA, chemistry not given here) [spacer 6.139, Promoter]	–	–	–	–	25.45	64.28	15.03	81.73	73.01	–
UUCCACUGGCCUUAACCUGG (listed as RNA, chemistry not given here) [spacer 6.142, Promoter]	–	–	–	–	27.27	61.73	30.87	62.48	62.1	–
GUGUUUCCUGGGUCCACCUU (listed as RNA, chemistry not given here) [spacer 6.147, Promoter]	–	–	–	–	37.43	47.46	53.6	34.85	41.15	–
GUGGGCAGCGAGGAGUCCAC (listed as RNA, chemistry not given here) [spacer 6.144, Promoter]	–	–	–	–	29	59.29	23.42	71.53	65.41	–
Non-targeting (guide CGAGACGTAATTACGTCTCG; chemistry not given here)	–	–	–	–	71.24	0	82.28	0	0	–
CGCUACCUGCCUAAACUUUG (spacer within chemically modified full gRNA with 2'-OMe and phosphorothioate ends, further chemistry not given here) [spacer 27.88, mouse PCSK9]	–	strongest permanence in silencing PCSK9	–	–	–	–	–	–	–	–
GCGCGCCCCUUCACGCGCCC (listed as RNA, chemistry not given here) [spacer 6.159, Exon 1]	–	–	–	–	80.84	13.47	53.15	35.4	10.97	–
TG-06-348 (guide AGGCAUUCACUCCUUCACCC; listed as RNA, chemistry not given here)	–	–	–	–	35.55	50.1	23.14	71.88	60.99	–
